Data reported in patent US12187728B2 (Raze Therapeutics, Inc., priority 2015, dated 2025).

What follows are compounds tested against T1, Human MTHFD2 (Homo sapiens, UniProt P13995) (assay: MTHFD2 Activity Assay (dehydrogenase activity, diaphorase/resazurin coupled fluorescence)). Conditions: inhibitory activity (IC50 and/or binding constant); 0.2 nM MTHFD2, 11 concentrations.
T1 construct: residues 36-350 in Uniport ID P13995; His6 (N); made in house; host or cells: E. coli
T1 sequence (P13995 36-350): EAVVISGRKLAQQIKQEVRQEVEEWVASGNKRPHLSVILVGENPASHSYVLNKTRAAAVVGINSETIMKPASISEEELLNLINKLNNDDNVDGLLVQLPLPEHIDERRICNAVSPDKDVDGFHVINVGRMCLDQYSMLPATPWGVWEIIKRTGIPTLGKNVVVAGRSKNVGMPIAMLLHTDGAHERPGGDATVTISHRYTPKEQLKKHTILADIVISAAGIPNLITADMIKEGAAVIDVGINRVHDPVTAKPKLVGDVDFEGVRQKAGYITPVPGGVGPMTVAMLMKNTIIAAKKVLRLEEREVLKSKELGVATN
Assay type: biochemical
Outline: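 His6-tagged MTHFD2 (res. 36-350), E. coli-expressed, at 0.2 nM preincubated with compound 15 min in Hepes pH 8.0/MgCl2/KH2PO4 buffer; 70 μM CH2-THF, 1 mM NAD+ added with resazurin/diaphorase, 30 min, EDTA stop. Resorufin fluorescence (ex 525/em 598); IC50 from 11-point 4-parameter fit.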
In the case of `Cn1c(Nc2ccnc([C@@H]3C[C@H]3C(=O)O)c2)nc2c1c(=O)n(Cc1ccc(Cl)c(Cl)c1)c(=O)n2C` (single isomer, unassigned) [Example 300, (1R,2R)-2-(4-((1-(3,4-dichlorobenzyl)-3,7-dimethyl-2,6-dioxo-2,3,6,7-tetrahydro-1H-purin-8-yl)amino)pyridin-2-yl)cyclopropanecarboxylic acid or (1S,2S)-2-(4-((1-(3,4-dichlorobenzyl)-3,7-dimethyl-2,6-dioxo-2,3,6,7-tetrahydro-1H-purin-8-yl)amino)pyridin-2-yl)cyclopropanecarboxylic acid], the IC50 is reported as 0.01 to 1 µM.
Work on `Cn1c(Nc2ccnc([C@H]3C[C@@H]3C(=O)O)c2)nc2c1c(=O)n(Cc1ccc(Cl)c(Cl)c1)c(=O)n2C` (single isomer, unassigned) [Example 301, (1S,2S)-2-(4-((1-(3,4-dichlorobenzyl)-3,7-dimethyl-2,6-dioxo-2,3,6,7-tetrahydro-1H-purin-8-yl)amino)pyridin-2-yl)cyclopropanecarboxylic acid or (1R,2R)-2-(4-((1-(3,4-dichlorobenzyl)-3,7-dimethyl-2,6-dioxo-2,3,6,7-tetrahydro-1H-purin-8-yl)amino)pyridin-2-yl)cyclopropanecarboxylic acid] yielded an IC50 of 0.01 to 1 µM.
In the case of `Cn1c(Nc2ccnc([C@@H]3C[C@H]3C(=O)O)c2)nc2c1c(=O)n(Cc1cc3c(Cl)cccc3[nH]1)c(=O)n2C` (single isomer, unassigned) [Example 322, (1R,2R)-2-(4-((1-((4-chloro-1H-indol-2-yl)methyl)-3,7-dimethyl-2,6-dioxo-2,3,6,7-tetrahydro-1H-purin-8-yl)amino)pyridin-2-yl)cyclopropanecarboxylic acid or (1S,2S)-2-(4-((1-((4-chloro-1H-indol-2-yl)methyl)-3,7-dimethyl-2,6-dioxo-2,3,6,7-tetrahydro-1H-purin-8-yl)amino)pyridin-2-yl)cyclopropanecarboxylic acid], the IC50 is reported as 0.01 to 1 µM.
Work on `Cn1c(Nc2ccnc([C@@H]3C[C@H]3CO)c2)nc2c1c(=O)n(Cc1ccc(Cl)c(Cl)c1)c(=O)n2C` (single isomer, unassigned) [Example 337, 1-(3,4-dichlorobenzyl)-8-((2-((1R,2R)-2-(hydroxymethyl)cyclopropyl)pyridin-4-yl)amino)-3,7-dimethyl-1H-purine-2,6(3H,7H)-dione or 1-(3,4-dichlorobenzyl)-8-((2-((1S,2S)-2-(hydroxymethyl)cyclopropyl)pyridin-4-yl)amino)-3,7-dimethyl-1H-purine-2,6(3H,7H)-dione] yielded an IC50 of 1 to 5 µM.
Compound `Cn1c(Nc2ccnc([C@@H]3C[C@H]3CO)c2)nc2c1c(=O)n(Cc1ccc(Cl)c(Cl)c1)c(=O)n2C` (single isomer, unassigned) [Example 338, 1-(3,4-dichlorobenzyl)-8-((2((1R,2R)-2-(hydroxymethyl)cyclopropyl)pyridin-4-yl)amino)-3,7-dimethyl-1H-purine-2,6(3H,7H)-dione or 1-(3,4-dichlorobenzyl)-8-((2-((1S,2S)-2-(hydroxymethyl)cyclopropyl)pyridin-4-yl)amino)-3,7-dimethyl-1H-purine-2,6(3H,7H)-dione] has an IC50 of 5 to 10 µM.
With `Cn1c(Nc2ccnc([C@H]3C[C@@H]3C(=O)O)c2)nc2c1c(=O)n(Cc1cc3c(Cl)cccc3[nH]1)c(=O)n2C` (single isomer, unassigned) [Example 363, (1S,2S)-2-(4-((1-((4-chloro-1H-indol-2-yl)methyl)-3,7-dimethyl-2,6-dioxo-2,3,6,7-tetrahydro-1H-purin-8-yl)amino)pyridin-2-yl)cyclopropanecarboxylic acid or (1R,2R)-2-(4-((1-((4-chloro-1H-indol-2-yl)methyl)-3,7-dimethyl-2,6-dioxo-2,3,6,7-tetrahydro-1H-purin-8-yl)amino)pyridin-2-yl)cyclopropanecarboxylic acid] the IC50 was 0.01 to 1 µM.
With `Cn1c(Nc2cccc([C@@H]3C[C@H]3C(=O)O)n2)nc2c1c(=O)n(Cc1cc3c(Cl)cccc3[nH]1)c(=O)n2C` (single isomer, unassigned) [Example 398, (1R,2R)-2-(6-((1-((4-chloro-1H-indol-2-yl)methyl)-3,7-dimethyl-2,6-dioxo-2,3,6,7-tetrahydro-1H-purin-8-yl)amino)pyridin-2-yl)cyclopropanecarboxylic acid or (1S,2S)-2-(6-((1-((4-chloro-1H-indol-2-yl)methyl)-3,7-dimethyl-2,6-dioxo-2,3,6,7-tetrahydro-1H-purin-8-yl)amino)pyridin-2-yl)cyclopropanecarboxylic acid] the IC50 was 0.01 to 1 µM.
`C[C@H](N)c1nc2c(c(=O)n(Cc3cc4c(Cl)cccc4[nH]3)c(=O)n2C)n1C` (single isomer, unassigned) [Example 435, (S)-8-(1-aminoethyl)-1-((4-chloro-1H-indol-2-yl)methyl)-3,7-dimethyl-1H-purine-2,6(3H,7H)-dione or (R)-8-(1-aminoethyl)-1-((4-chloro-1H-indol-2-yl)methyl)-3,7-dimethyl-1H-purine-2,6(3H,7H)-dione] showed an IC50 of 0.01 to 1 µM.
With `C[C@@H](N)c1nc2c(c(=O)n(Cc3cc4c(Cl)cccc4[nH]3)c(=O)n2C)n1C` (single isomer, unassigned) [Example 436, (R)-8-(1-aminoethyl)-14(4-chloro-1H-indol-2-yl)methyl)-3,7-dimethyl-1H-purine-2,6(3H,7H)-dione or (S)-8-(1-aminoethyl)-1-((4-chloro-1H-indol-2-yl)methyl)-3,7-dimethyl-1H-purine-2,6(3H,7H)-dione] the IC50 was 0.01 to 1 µM.
Work on `Cn1c(N[C@@H]2CC[C@H](CO)C2)nc2c1c(=O)n(Cc1ccc(Cl)c(Cl)c1)c(=O)n2C` (stereo in doubt) [Example 275, 1-(3,4-dichlorobenzyl)-8-((1R,3S)-3-(hydroxymethyl)cyclopentylamino)-3,7-dimethyl-1H-purine-2,6(3H,7H)-dione] yielded an IC50 of 0.01 to 1 µM.
In the case of `Cn1c(N[C@H]2CC[C@@H](CO)C2)nc2c1c(=O)n(Cc1cc3ccccc3[nH]1)c(=O)n2C` (stereo in doubt) [Example 317, 1-((1H-indol-2-yl)methyl)-8-((1S,3R)-3-(hydroxymethyl)cyclopentylamino)-3,7-dimethyl-1H-purine-2,6(3H,7H)-dione], the IC50 is reported as 0.01 to 1 µM.
`Cn1c(NCCO)nc2c1c(=O)n(Cc1ccc(Cl)c(Cl)c1)c(=O)n2C` [Example 1, 1-(3,4-dichlorobenzyl)-8-((2-hydroxyethyl)amino)-3,7-dimethyl-1H-purine-2,6(3H,7H)-dione] showed an IC50 of 1 to 5 µM.
In the case of `C[C@H](O)CNc1nc2c(c(=O)n(Cc3ccc(Cl)c(Cl)c3)c(=O)n2C)n1C` [Example 8, 1-[(3,4-dichlorophenyl)methyl]-8-{[(2S)-2-hydroxypropyl]amino}-3,7-dimethyl-2,3,6,7-tetrahydro-1H-purine-2,6-dione], the IC50 is reported as 0.01 to 1 µM.
In the case of `C[C@@H](O)CNc1nc2c(c(=O)n(Cc3ccc(Cl)c(Cl)c3)c(=O)n2C)n1C` [Example 9, 1-[(3,4-dichlorophenyl)methyl]-8-{[(2R)-2-hydroxypropyl]amino}-3,7-dimethyl-2,3,6,7-tetrahydro-1H-purine-2,6-dione], the IC50 is reported as 0.01 to 1 µM.
`Cn1c(NC[C@@H](O)CO)nc2c1c(=O)n(Cc1ccc(Cl)c(Cl)c1)c(=O)n2C` [Example 13, 1-[(3,4-dichlorophenyl)methyl]-8-{[(2R)-2,3-dihydroxypropyl]amino}-3,7-dimethyl-2,3,6,7-tetrahydro-1H-purine-2,6-dione] was tested, and the IC50 was 0.01 to 1 µM.
`Cn1c(NC[C@H](O)CO)nc2c1c(=O)n(Cc1ccc(Cl)c(Cl)c1)c(=O)n2C` [Example 14, 1-[(3,4-dichlorophenyl)methyl]-8-{[(2S)-2,3-dihydroxypropyl]amino}-3,7-dimethyl-2,3,6,7-tetrahydro-1H-purine-2,6-dione] gave an IC50 of 0.01 to 1 µM.
Work on `Cn1c(NC[C@@H](O)CO)nc2c1c(=O)n(Cc1ccc(Cl)cc1)c(=O)n2C` [Example 15, 1-[(4-chlorophenyl)methyl]-8-{[(2R)-2,3-dihydroxypropyl]amino}-3,7-dimethyl-2,3,6,7-tetrahydro-1H-purine-2,6-dione] yielded an IC50 of 5 to 10 µM.
For `Cn1c(NC[C@H](O)CO)nc2c1c(=O)n(Cc1ccc(Cl)cc1)c(=O)n2C` [Example 16, 1-[(4-chlorophenyl)methyl]-8-{[(2S)-2,3-dihydroxypropyl]amino}-3,7-dimethyl-2,3,6,7-tetrahydro-1H-purine-2,6-dione], the IC50 was greater than 10 µM.
For `C[C@@H](O)CNc1nc2c(c(=O)n(Cc3ccc(Cl)cc3)c(=O)n2C)n1C` [Example 17, 1-[(4-chlorophenyl)methyl]-8-{[(2R)-2-hydroxypropyl]amino}-3,7-dimethyl-2,3,6,7-tetrahydro-1H-purine-2,6-dione], the IC50 was 5 to 10 µM.
For `C[C@H](O)CNc1nc2c(c(=O)n(Cc3ccc(Cl)cc3)c(=O)n2C)n1C` [Example 18, 1-[(4-chlorophenyl)methyl]-8-{[(2S)-2-hydroxypropyl]amino}-3,7-dimethyl-2,3,6,7-tetrahydro-1H-purine-2,6-dione], the IC50 was 5 to 10 µM.
Compound `CNc1nc2c(c(=O)n(Cc3ccc(Cl)c(Cl)c3)c(=O)n2C)n1C` [Example 21, 1-[(3,4-dichlorophenyl)methyl]-3,7-dimethyl-8-(methylamino)-2,3,6,7-tetrahydro-1H-purine-2,6-dione] has an IC50 of 1 to 5 µM.
For `CC(=O)NCCNc1nc2c(c(=O)n(Cc3ccc(Cl)c(Cl)c3)c(=O)n2C)n1C` [Example 22, N-[2-({1-[(3,4-dichlorophenyl)methyl]-3,7-dimethyl-2,6-dioxo-2,3,6,7-tetrahydro-1H-purin-8-yl}amino)ethyl]acetamide], the IC50 was 0.01 to 1 µM.
